# Measurements from patent publication US8188139B2, “Heterocyclic-substituted phenyl methanones” (Hoffman-La Roche Inc., priority 2005, dated 2012).
# Target: T1, mGlyT-1b (Mus musculus, UniProt P28571)
# T1 construct: host or cells: Flp-in-CHO
# T1 sequence (P28571 1-651 isoform P28571-2): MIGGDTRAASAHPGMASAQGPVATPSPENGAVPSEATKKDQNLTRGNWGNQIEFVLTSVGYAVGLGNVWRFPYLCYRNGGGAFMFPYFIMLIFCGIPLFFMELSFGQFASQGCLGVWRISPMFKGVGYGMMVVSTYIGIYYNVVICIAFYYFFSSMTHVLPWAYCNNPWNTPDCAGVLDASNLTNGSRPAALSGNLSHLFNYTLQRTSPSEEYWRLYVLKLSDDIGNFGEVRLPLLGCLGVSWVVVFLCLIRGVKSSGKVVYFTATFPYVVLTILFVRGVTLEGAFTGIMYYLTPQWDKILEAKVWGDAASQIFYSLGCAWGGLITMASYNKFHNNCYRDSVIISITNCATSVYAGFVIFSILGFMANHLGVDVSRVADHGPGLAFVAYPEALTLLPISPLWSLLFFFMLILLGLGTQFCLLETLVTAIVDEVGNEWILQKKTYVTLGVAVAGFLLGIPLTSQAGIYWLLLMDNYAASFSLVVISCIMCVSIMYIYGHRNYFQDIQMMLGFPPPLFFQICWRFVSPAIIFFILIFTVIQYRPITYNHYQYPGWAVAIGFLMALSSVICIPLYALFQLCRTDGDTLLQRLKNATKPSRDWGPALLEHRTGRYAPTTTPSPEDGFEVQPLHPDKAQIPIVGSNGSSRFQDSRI
# Assay: Glycine uptake inhibition assay (mGlyT-1b)
# Assay type: cell-based
# Settings: inhibition of [3H]-glycine uptake in Flp-in-CHO cells transfected with mGlyT-1b cDNA; 20 min preincubation at 22° C.; read-out: IC50 (μM) at GlyT-1
# In short: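 Flp-in CHO cells stably expressing mouse GlyT-1b were preincubated with inhibitor (concentration range) for 20 min at 22° C. in pH 7.4 uptake buffer; nonspecific uptake defined with 10 mM glycine. [3H]-glycine 60 nM plus 25 μM unlabelled glycine was then added; cell-associated radioactivity counted by scintillation and IC50 derived.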
row,IC50 [µM],Compound
1,0.033,"C[C@H](Oc1ccc(S(C)(=O)=O)cc1C(=O)N1Cc2cc(Cl)c(N3C[C@@H]4C[C@H]3CO4)cc2C1)C(F)(F)F [Example 365, ((1S,4S)-5-Chloro-6-2-oxa-5-aza-bicyclo[2.2.1]hept-5-yl-1,3-dihydro-isoindol-2-yl)-[5-methanesulfonyl-2-((S)-2,2,2-trifluoro-1-methyl-ethoxy)-phenyl]-methanone]"
2,0.002,"C[C@H](Oc1ccc(S(C)(=O)=O)cc1C(=O)N1Cc2cc(F)c(C3CCOCC3)cc2C1)C(F)(F)F [Example 366, [5-Fluoro-6-(tetrahydro-pyran-4-yl)-1,3-dihydro-isoindol-2-yl]-[5-methanesulfonyl-2-((S)-2,2,2-trifluoro-1-methyl-ethoxy)-phenyl]-methanone]"
3,0.0015,"C[C@H](Oc1ccc(S(C)(=O)=O)cc1C(=O)N1Cc2ccc(OC3CCOCC3)cc2C1)C(F)(F)F [Example 367, [5-Methanesulfonyl-2-((S)-2,2,2-trifluoro-1-methyl-ethoxy)-phenyl]-[5-(tetrahydro-pyran-4-yloxy)-1,3-dihydro-isoindol-2-yl]-methanone]"
4,0.005,"C[C@H](Oc1ccc(S(C)(=O)=O)cc1C(=O)N1Cc2ccc(C3(F)COC3)cc2C1)C(F)(F)F [Example 368, [5-(3-Fluoro-oxetan-3-yl)-1,3-dihydro-isoindol-2-yl]-[5-methanesulfonyl-2-((S)-2,2,2-trifluoro-1-methyl-ethoxy)-phenyl]-methanone]"
5,0.047,"C[C@H](Oc1ccc(S(C)(=O)=O)cc1C(=O)N1Cc2ccc(OCCC(F)(F)F)cc2C1)C(F)(F)F [Example 370, [5-Methanesulfonyl-2-((S)-2,2,2-trifluoro-1-methyl-ethoxy)-phenyl]-[5-(3,3,3-trifluoro-propoxy)-1,3-dihydro-isoindol-2-yl]-methanone]"
6,0.006,"C[C@H](Oc1ccc(S(C)(=O)=O)cc1C(=O)N1Cc2cc(F)c(N3CCOCC3)cc2C1)C(F)(F)F [Example 371, (5-Fluoro-6-morpholin-4-yl-1,3-dihydro-isoindol-2-yl)-[5-methanesulfonyl-2-((S)-2,2,2-trifluoro-1-methyl-ethoxy)-phenyl]-methanone]"
7,0.004,"CS(=O)(=O)c1ccc(OCC(F)(F)C(F)(F)F)c(C(=O)N2Cc3cc(F)c(N4CCOCC4)cc3C2)c1 [Example 372, (5-Fluoro-6-morpholin-4-yl-1,3-dihydro-isoindol-2-yl)-[5-methanesulfonyl-2-(2,2,2,3,3-pentafluoropropoxy)-phenyl]-methanone]"
8,0.015,"CC(C)Oc1ccc(S(C)(=O)=O)cc1C(=O)N1Cc2ccc(OC3CCOCC3)cc2C1 [Example 373, (2-Isopropoxy-5-methanesulfonyl-phenyl)-[5-(tetrahydro-pyran-4-yloxy)-1,3-dihydro-isoindol-2-yl]-methanone]"
9,0.003,"CS(=O)(=O)c1ccc(OCC(F)(F)C(F)(F)F)c(C(=O)N2Cc3ccc(OC4CCOCC4)cc3C2)c1 [Example 374, [5-Methanesulfonyl-2-(2,2,3,3,3-pentafluoro-propoxy)-phenyl]-[5-(tetrahydro-pyran-4-yloxy)-1,3-dihydro-isoindol-2-yl]-methanone]"
10,0.015,"C[C@H](Oc1ccc(S(C)(=O)=O)cc1C(=O)N1Cc2cc(Cl)c(OC3CCOCC3)cc2C1)C(F)(F)F [Example 375, [5-Chloro-6-(tetrahydro-pyran-4-yloxy)-1,3-dihydro-isoindol-2-yl]-[5-methanesulfonyl-2-((S)-2,2,2-trifluoro-1-methyl-ethoxy)-phenyl]-methanone]"
11,0.016,"CC(C)Oc1ccc(S(C)(=O)=O)cc1C(=O)N1Cc2cc(Cl)c(OC3CCOCC3)cc2C1 [Example 376, [5-Chloro-6-(tetrahydro-pyran-4-yloxy)-1,3-dihydro-isoindol-2-yl]-(2-isopropoxy-5-methanesulfonyl-phenyl)-methanone]"
12,0.007,"C[C@H](Oc1ccc(S(C)(=O)=O)cc1C(=O)N1Cc2cc(F)c(OC3CCOCC3)cc2C1)C(F)(F)F [Example 377, [5-Fluoro-6-(tetrahydro-pyran-4-yloxy)-1,3-dihydro-isoindol-2-yl]-[5-methanesulfonyl-2-((S)-2,2,2-trifluoro-1-methyl-ethoxy)-phenyl]-methanone]"
13,0.035,"CC(C)Oc1ccc(S(C)(=O)=O)cc1C(=O)N1Cc2cc(F)c(OC3CCOCC3)cc2C1 [Example 378, [5-Fluoro-6-(tetrahydro-pyran-4-yloxy)-1,3-dihydro-isoindol-2-yl]-(2-isopropoxy-5-methanesulfonyl-phenyl)-methanone]"
14,0.007,"CS(=O)(=O)c1ccc(OCC(F)(F)C(F)(F)F)c(C(=O)N2Cc3cc(F)c(OC4CCOCC4)cc3C2)c1 [Example 379, [5-Fluoro-6-(tetrahydro-pyran-4-yloxy)-1,3-dihydro-isoindol-2-yl]-[5-methanesulfonyl-2-(2,2,3,3,3-pentafluoro-propoxy)-phenyl]-methanone]"
15,0.005,"CS(=O)(=O)c1ccc(OCC(F)(F)C(F)(F)F)c(C(=O)N2Cc3cc(Cl)c(OC4CCOCC4)cc3C2)c1 [Example 380, [5-Chloro-6-(tetrahydro-pyran-4-yloxy)-1,3-dihydro-isoindol-2-yl]-[5-methanesulfonyl-2-(2,2,3,3,3-pentafluoro-propoxy)-phenyl]-methanone]"
16,0.024,"C[C@H](Oc1ccc(S(C)(=O)=O)cc1C(=O)N1Cc2ccc(-c3ccc(F)cc3)nc2C1)C(F)(F)F [Example 382, [2-(4-Fluoro-phenyl)-5,7-dihydro-pyrrolo[3,4-b]pyridin-6-yl]-[5-methanesulfonyl-2-((S)-2,2,2-trifluoro-1-methyl-ethoxy)-phenyl]-methanone]"
